Source: PMC6812009, “Covalent Aurora A regulation by the metabolic integrator coenzyme A” (Redox Biology, 2019)

How the values were obtained:
Assay in all cases: Kinase profiling screen (radioactive filter-binding assay)
Assay type in all cases: biochemical
CSK = CSK (Homo sapiens, UniProt P41240); details: 100 μM compound, 20 μM ATP; read-out: Kinase activity, % of activity in the absence of inhibitor
Outline: (§1)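 Residual kinase activity is read in duplicate wells containing 100 μM final test compound (CoA, dpCoA or ADP). Recombinant kinases use model substrates at ATP levels optimal for each enzyme, across a 117-kinase screen.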

GSK3β = GSK3β (Homo sapiens, UniProt P49841); details: 100 μM compound, 5 μM ATP; read-out: Kinase activity, % of activity in the absence of inhibitor
Outline: as §1

CK2α = CK2α (Homo sapiens, UniProt P68400); details: 100 μM compound, 5 μM ATP; read-out: Kinase activity, % of activity in the absence of inhibitor
Outline: as §1

EPH-B2 = molecular target: T1, EPH-B2 (Homo sapiens, UniProt P29323); details: 100 μM compound, 20 μM ATP; read-out: Kinase activity, % of activity in the absence of inhibitor
T1 sequence (P29323 19-1055): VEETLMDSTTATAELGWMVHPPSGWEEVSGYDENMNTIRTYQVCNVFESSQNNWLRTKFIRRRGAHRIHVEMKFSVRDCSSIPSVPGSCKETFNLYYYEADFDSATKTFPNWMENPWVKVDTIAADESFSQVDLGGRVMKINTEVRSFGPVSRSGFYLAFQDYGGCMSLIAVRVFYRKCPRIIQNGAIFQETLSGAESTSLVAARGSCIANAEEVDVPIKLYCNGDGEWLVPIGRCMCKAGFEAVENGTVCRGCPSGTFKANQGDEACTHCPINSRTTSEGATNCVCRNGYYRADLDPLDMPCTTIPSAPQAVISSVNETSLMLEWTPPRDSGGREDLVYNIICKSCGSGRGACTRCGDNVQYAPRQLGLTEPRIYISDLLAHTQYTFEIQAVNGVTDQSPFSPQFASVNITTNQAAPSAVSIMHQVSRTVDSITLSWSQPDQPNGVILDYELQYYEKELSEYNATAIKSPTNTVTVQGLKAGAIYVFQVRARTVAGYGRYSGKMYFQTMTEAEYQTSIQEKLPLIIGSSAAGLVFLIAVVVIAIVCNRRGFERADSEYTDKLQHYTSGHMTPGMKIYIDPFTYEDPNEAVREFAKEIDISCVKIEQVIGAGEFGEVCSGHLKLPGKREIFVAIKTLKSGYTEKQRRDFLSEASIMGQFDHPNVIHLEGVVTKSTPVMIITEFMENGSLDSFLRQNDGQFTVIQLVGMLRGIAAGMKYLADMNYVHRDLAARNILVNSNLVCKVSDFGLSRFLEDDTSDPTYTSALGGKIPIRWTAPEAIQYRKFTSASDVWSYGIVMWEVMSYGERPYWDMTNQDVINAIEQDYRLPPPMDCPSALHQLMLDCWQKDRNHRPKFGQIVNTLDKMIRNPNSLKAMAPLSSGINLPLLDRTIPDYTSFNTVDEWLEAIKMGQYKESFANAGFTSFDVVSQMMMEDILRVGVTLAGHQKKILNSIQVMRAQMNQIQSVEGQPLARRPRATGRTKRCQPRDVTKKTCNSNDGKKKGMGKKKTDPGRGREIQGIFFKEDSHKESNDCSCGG
Outline: as §1

ABL = ABL (Homo sapiens, UniProt P00519); details: 100 μM compound, 5 μM ATP; read-out: Kinase activity, % of activity in the absence of inhibitor
Outline: as §1

PKD1 = molecular target: T2, PKD1 (Homo sapiens, UniProt Q15139); details: 100 μM compound, 50 μM ATP; read-out: Kinase activity, % of activity in the absence of inhibitor
T2 sequence (Q15139 1-912): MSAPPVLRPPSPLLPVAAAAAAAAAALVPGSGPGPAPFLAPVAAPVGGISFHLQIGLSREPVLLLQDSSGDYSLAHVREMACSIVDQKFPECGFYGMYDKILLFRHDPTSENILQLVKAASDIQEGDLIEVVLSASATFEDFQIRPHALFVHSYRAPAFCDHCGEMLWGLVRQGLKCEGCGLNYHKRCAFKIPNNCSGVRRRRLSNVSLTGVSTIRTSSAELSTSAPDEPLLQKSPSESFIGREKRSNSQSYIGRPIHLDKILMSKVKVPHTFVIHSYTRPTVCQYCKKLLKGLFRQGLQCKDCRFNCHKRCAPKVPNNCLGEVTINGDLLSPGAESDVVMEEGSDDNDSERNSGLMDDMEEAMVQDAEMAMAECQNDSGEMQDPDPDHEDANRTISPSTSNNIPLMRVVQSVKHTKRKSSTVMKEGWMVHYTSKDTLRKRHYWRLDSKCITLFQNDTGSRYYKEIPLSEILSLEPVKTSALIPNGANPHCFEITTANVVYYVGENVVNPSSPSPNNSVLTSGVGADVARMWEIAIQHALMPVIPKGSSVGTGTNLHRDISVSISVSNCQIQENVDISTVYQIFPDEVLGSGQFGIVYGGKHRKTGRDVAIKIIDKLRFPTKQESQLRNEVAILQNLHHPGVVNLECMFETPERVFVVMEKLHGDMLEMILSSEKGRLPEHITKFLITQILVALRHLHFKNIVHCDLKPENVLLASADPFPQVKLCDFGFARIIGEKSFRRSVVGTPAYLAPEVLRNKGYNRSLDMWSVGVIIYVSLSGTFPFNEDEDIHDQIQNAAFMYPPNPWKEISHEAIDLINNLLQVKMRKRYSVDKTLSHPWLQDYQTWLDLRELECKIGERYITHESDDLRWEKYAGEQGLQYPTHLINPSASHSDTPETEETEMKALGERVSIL
Outline: as §1

p38β MAPK = p38β MAPK (Homo sapiens, UniProt Q15759); details: 100 μM compound, 20 μM ATP; read-out: Kinase activity, % of activity in the absence of inhibitor
Outline: as §1

Chain of ABL (P00519 whole entry): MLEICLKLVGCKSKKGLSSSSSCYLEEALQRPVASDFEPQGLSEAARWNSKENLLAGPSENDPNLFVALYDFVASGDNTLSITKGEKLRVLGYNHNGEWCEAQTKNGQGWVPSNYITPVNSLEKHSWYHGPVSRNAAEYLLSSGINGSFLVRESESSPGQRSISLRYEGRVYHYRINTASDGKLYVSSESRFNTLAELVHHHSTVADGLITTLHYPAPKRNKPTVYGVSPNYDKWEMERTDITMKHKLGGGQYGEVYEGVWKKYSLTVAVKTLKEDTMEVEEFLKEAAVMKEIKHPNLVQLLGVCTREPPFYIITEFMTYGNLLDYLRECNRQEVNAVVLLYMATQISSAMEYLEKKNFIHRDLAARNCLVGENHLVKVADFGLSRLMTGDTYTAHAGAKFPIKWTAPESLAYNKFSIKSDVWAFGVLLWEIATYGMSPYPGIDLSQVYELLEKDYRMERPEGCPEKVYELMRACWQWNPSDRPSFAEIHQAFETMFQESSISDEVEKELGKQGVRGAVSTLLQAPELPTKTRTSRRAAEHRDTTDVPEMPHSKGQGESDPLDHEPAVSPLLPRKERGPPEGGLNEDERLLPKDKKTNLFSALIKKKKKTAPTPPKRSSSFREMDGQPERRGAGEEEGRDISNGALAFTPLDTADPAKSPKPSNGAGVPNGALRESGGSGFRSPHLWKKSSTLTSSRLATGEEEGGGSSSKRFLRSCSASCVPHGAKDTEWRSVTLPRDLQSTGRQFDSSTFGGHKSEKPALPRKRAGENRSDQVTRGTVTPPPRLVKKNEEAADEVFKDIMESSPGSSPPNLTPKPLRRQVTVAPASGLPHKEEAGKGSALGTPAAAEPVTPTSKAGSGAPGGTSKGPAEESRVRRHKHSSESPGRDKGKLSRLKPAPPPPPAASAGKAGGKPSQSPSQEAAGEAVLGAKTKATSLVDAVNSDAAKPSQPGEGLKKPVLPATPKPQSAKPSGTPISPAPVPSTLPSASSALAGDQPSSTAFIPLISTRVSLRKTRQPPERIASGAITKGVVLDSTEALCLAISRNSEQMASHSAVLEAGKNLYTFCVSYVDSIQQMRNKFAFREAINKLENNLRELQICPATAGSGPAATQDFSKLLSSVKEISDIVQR
Chain of GSK3β (P49841 whole entry): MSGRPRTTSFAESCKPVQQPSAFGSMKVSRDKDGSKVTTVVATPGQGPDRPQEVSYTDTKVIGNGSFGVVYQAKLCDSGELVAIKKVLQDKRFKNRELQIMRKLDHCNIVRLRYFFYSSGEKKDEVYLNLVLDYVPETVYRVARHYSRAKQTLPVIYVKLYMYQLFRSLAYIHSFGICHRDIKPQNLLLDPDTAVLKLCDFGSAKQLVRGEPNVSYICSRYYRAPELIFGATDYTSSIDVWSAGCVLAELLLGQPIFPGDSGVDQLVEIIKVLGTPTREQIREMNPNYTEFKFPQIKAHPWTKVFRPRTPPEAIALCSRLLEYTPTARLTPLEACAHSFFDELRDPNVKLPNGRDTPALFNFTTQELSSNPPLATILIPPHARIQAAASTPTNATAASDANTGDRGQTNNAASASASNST
Chain of CSK (P41240 whole entry): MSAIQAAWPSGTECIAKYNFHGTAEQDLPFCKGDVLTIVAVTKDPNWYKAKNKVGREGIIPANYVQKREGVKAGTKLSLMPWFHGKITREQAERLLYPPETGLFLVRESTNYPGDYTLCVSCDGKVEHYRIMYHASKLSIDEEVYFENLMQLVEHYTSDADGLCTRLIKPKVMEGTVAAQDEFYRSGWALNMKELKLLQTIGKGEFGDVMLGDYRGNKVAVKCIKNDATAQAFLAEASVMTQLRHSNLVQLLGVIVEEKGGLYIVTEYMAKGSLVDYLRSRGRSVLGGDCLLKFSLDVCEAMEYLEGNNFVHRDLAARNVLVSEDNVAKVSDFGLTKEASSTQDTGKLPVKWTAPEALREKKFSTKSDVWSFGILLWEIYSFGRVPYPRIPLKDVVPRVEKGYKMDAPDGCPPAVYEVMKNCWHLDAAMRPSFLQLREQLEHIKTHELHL
Chain of CK2α (P68400 whole entry): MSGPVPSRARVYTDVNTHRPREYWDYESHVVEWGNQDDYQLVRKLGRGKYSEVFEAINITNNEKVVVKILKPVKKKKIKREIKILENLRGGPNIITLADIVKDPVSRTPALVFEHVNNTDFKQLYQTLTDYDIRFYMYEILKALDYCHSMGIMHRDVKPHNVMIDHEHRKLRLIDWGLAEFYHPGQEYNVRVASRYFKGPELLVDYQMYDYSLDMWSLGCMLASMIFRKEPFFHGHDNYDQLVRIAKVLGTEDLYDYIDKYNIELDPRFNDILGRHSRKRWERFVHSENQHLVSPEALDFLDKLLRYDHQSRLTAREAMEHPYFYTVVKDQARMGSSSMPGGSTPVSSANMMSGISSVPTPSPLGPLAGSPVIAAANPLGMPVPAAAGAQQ
Chain of p38β MAPK (Q15759 whole entry): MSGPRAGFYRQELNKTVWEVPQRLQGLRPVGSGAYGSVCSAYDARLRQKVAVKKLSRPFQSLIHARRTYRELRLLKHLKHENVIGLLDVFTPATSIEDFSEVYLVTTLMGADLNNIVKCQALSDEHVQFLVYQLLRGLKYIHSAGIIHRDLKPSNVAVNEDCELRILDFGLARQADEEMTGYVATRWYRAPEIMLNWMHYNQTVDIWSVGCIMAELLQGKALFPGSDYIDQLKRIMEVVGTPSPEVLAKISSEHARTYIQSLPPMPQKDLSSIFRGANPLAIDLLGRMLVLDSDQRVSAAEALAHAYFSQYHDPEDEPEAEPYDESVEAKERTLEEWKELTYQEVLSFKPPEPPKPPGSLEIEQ

Row | SMILES | activity at 100 µM (CSK) [%] | activity at 100 µM (GSK3β) [%] | activity at 100 µM (CK2α) [%] | activity at 100 µM (EPH-B2) [%] | activity at 100 µM (ABL) [%] | activity at 100 µM (PKD1) [%] | activity at 100 µM (p38β MAPK) [%]
1 | Nc1ncnc2c1ncn2C1OC(COP(=O)(O)OP(=O)(O)O)C(O)C1O (stereo not drawn) [ADP] | 18.5 | 18.2 | 5.4 | 14.3 | 22.9 | 56.2 | 51.1
2 | CC(C)(COP(=O)(O)OP(=O)(O)OC[C@H]1O[C@@H](n2cnc3c(N)ncnc32)[C@H](O)[C@@H]1OP(=O)(O)O)[C@@H](O)C(=O)NCCC(=O)NCCS [CoA, Coenzyme A] | 92.6 | 94.7 | 80.1 | 117 | 111 | 112 | 160
3 | CC(C)(COP(=O)(O)OP(=O)(O)OCC1OC(n2cnc3c(N)ncnc32)C(O)C1O)C(O)C(=O)NCCC(=O)NCCS (stereo not drawn) [dpCoA, dephospho-CoA] | 54.9 | 72.1 | 39.8 | 91.1 | 98 | 104 | 94.5
